Experiments:
PKR(R510Q) = PKR(R510Q) (Homo sapiens, UniProt P30613, R510Q); assay: Luminescence Biochemical Assay (Kinase Glo Plus), PKR R510Q mutant; details: without FBP; for activation at 1.54 µM: 1.54 μM compound, read-out: AC50 LUM KGP woFBP % Fold@1.54 μM mean; for AC50: read-out: AC50 LUM KGP woFBP AC50 μM gmean; for Emax: read-out: AC50 LUM KGP woFBP MAX % FOLD mean
Procedure: (§1) In some embodiments, a PKR Activating Compound can have: (1) an AC50 value of less than 0.1 μM (e.g., compounds with AC50 values of “+++” in Table 13), 0.1-1.0 μM (e.g., compounds with AC50 values of “++” in Table 13), or 1.01-40 μM (e.g., compounds with AC50 values of “+” in Table 13); (2) a MAX % Fold of 75%-250%, 250-500%, or 75%-500%; and/or (3) a % Fold@1.54 μM of 75%-250%, 250-500%, or 75%-500%. In some embodiments, a PKR Activating Compound has (1) an AC50 value of less than 1.0 μM; (2) a MAX % Fold of 75%-500%; and/or (3) a % Fold@1.54 μM of 75%-500%.
(§2) The phosphorylation of Adenosine-5′-diphosphate (ADP) by various mutants of PKR was determined by the Kinase Glo Plus Assay (Promega) in the presence or absence of FBP [D-Fructose-1,6-diphosphate; BOC Sciences, CAS: 81028-91-3] as follows. Unless otherwise indicated, all reagents were purchased from Sigma-Aldrich. All reagents were prepared in buffer containing 50 mM Tris-HCl, 100 mM KCl, 5 mM MgCl2, and 0.01% Triton X100, 0.03% BSA, and 1 mM DTT. Enzyme and PEP [Phospho(enol) pyruvic acid] were added at 2× to all wells of an assay-ready plate containing serial dilutions of test compounds or DMSO vehicle. Final enzyme concentrations for PKR(wt), PKR(R510Q), and PKR(G332S) were 0.8 nM, 0.8 nM, and 10 nM respectively. Final PEP concentration was 100 μM. The Enzyme/PEP mixture was incubated with compounds for 30 minutes at RT before the assay was initiated with the addition of 2×ADP [Adenosine-5′-diphosphate] and KinaseGloPlus. Final concentration of ADP was 100 μM. […] For assays containing FBP, that reagent is added at 30 μM upon reaction initiation. Reactions were allowed to progress for 45 minutes at RT until luminescence was recorded by the BMG PHERAstar FS Multilabel Reader. All compounds were tested in triplicate at concentrations ranging from 42.5 μM to 2.2 nM in 0.83% DMSO.
(§3) Luminescence values were converted to % Fold increase by normalizing to the average of the DMSO control and multiplying by 100. Max, min, slope and AC50 were determined by the standard four parameter fit algorithm of ActivityBase XE Runner. Compounds were evaluated with three parameters—AC50, MAX % Fold, and % Fold@1.54 μM (FIG. 1). The AC50 value for a compound is the concentration (μM) corresponding to the midway between the maximum and minimum values of the four parameter logistic curve fit (i.e., at which the % fold increase along the four parameter logistic curve fit is halfway between MAX % Fold and MIN % Fold (% Fold Midpoint)), MAX % Fold is the highest fold increase observed at any concentration of compound, and % Fold@1.54 μM is the fold increase at a compound concentration of 1.54 μM. The parameter % Fold@1.54 μM was selected to capture elements of both the AC50 and MAX % Fold and to provide a ranking based on both potency and effect. The compound concentration of 1.54 μM was chosen as one that can optimally differentiate the set of compounds based on the range of activities observed.
(§4) As set forth in Table 13 below, AC50 values (columns A, D, G) are defined as follows: ≤0.1 μM (+++); >0.1 μM and ≤1.0 μM (++); >1.0 μM and ≤40 μM (+); >40 μM (0). Max % FOLD values (columns B, E, H) are defined as follows: ≤75% (+); >75% and ≤250% (++); >250% and ≤500% (+++). % Fold@1.54 μM values (columns C, F, J) are defined as follows: ≤75% (+); >75% and ≤250% (++); >250% and ≤50000 (+++).

PKR(wt) = PKR(wt) (Homo sapiens, UniProt P30613); assay: Luminescence Biochemical Assay (Kinase Glo Plus), wild type PKR; details: without FBP; for activation at 1.54 µM: 1.54 μM compound, read-out: AC50 LUM KGP woFBP % Fold@1.54 μM mean; for AC50: read-out: AC50 LUM KGP woFBP AC50 μM gmean; for Emax: read-out: AC50 LUM KGP woFBP MAX % FOLD mean
Chain of PKR(wt) (P30613 whole entry): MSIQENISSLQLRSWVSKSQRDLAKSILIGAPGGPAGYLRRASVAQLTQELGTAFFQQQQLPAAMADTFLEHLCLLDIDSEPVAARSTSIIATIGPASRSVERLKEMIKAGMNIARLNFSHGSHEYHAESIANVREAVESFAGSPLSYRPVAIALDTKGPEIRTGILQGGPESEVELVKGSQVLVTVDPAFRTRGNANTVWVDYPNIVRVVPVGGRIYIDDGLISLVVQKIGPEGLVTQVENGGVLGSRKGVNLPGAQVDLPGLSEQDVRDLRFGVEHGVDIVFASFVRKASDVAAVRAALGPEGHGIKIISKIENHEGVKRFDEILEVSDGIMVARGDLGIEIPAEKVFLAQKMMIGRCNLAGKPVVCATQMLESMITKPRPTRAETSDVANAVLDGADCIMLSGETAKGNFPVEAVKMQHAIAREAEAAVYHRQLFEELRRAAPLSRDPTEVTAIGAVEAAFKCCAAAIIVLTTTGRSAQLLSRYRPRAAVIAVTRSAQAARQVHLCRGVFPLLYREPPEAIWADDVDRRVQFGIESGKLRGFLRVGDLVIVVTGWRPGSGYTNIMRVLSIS
Procedure: as §1, §2, §3, §4

Chain of PKR(R510Q) (P30613 whole entry R510Q): as the sequence (P30613 whole entry) above, with R510Q counted along it

SMILES | activation at 1.54 µM (PKR(R510Q)) | AC50 (PKR(R510Q)) | Emax (PKR(R510Q)) | activation at 1.54 µM (PKR(wt)) | AC50 (PKR(wt)) | Emax (PKR(wt))
Cc1nn(C)c(Cl)c1S(=O)(=O)N1CC2=C(CN(C(=O)[C@H](C)c3ccccc3)C2)C1 [Example 19-2, (2R)-1-{5-[(5-chloro-1,3-dimethyl-1H-pyrazol-4-yl)sulfonyl]-1H,2H,3H,4H,5H,6H-pyrrolo[3,4-c]pyrrol-2-yl}-2-phenylpropan-1-one] | 75 to 250% | 1 to 40 µM | 75 to 250% |  |  | 
O=C([C@H](O)c1ccccc1)N1CC2=C(C1)CN(S(=O)(=O)c1ccc(Cl)cc1)C2 [Example 18-10, (2R)-1-[5-(4-chlorobenzenesulfonyl)-1H,2H,3H,4H,5H,6H-pyrrolo[3,4-c]pyrrol-2-yl]-2-hydroxy-2-phenylethan-1-one] | 75 to 250% | 1 to 40 µM | 250 to 500% | 75 to 250% | 0.1 to 1 µM | 75 to 250%
O=C([C@H](O)c1ccccc1)N1CC2=C(C1)CN(S(=O)(=O)c1ccc(C(F)(F)F)cc1)C2 [Example 18-11, (2R)-2-hydroxy-2-phenyl-1-{5-[4-(trifluoromethyl)benzene-sulfonyl]-1H,2H,3H,4H,5H,6H-pyrrolo[3,4-c]pyrrol-2-yl}ethan-1-one] | 75 to 250% | 1 to 40 µM | 250 to 500% | 75 to 250% | 0.1 to 1 µM | 75 to 250%
O=C(NCc1cnccn1)N1CC2=C(C1)CN(S(=O)(=O)c1ccc3ncsc3c1)C2 [Example 21-30, 5-(1,3-Benzothiazole-6-sulfonyl)-N-(pyrazin-2-ylmethyl)-1H,2H,3H,4H,5H,6H-pyrrolo[3,4-c]pyrrole-2-carboxamide] | 75 to 250% | 1 to 40 µM | 250 to 500% | 250 to 50000% | 0.1 to 1 µM | 250 to 500%
COc1ccc(CNC(=O)N2CC3=C(C2)CN(S(=O)(=O)c2cccnc2)C3)cc1 [Example 20-2, N-[(4-methoxyphenyl)methyl]-5-(pyridine-3-sulfonyl)-1H,2H,3H,4H,5H,6H-pyrrolo[3,4-c]pyrrole-2-carboxamide] |  |  |  | 75 to 250% | 0.1 to 1 µM | 250 to 500%
C[C@@H](C(=O)N1CC2=C(C1)CN(S(=O)(=O)c1ccc(Cl)s1)C2)c1ccccc1 [Example 19-1, (2R)-1-{5-[(5-chlorothiophen-2-yl)sulfonyl]-1H,2H,3H,4H,5H,6H-pyrrolo[3,4-c]pyrrol-2-yl}-2-phenylpropan-1-one] | 75 to 250% | 1 to 40 µM | 75 to 250% |  |  | 
O=C([C@H](O)c1ccccc1)N1CC2=C(C1)CN(S(=O)(=O)c1cc(F)ccc1Cl)C2 [Example 18-57, (2R)-1-[5-(2-chloro-5-fluorobenzenesulfonyl)-1H,2H,3H,4H,5H,6H-pyrrolo[3,4-c]pyrrol-2-yl]-2-hydroxy-2-phenylethan-1-one] |  |  |  | 75 to 250% | 0.1 to 1 µM | 75 to 250%
Cc1cc(C(=O)N2CC3=C(C2)CN(S(=O)(=O)c2ccc4occc4c2)C3)nn1C [Example 18-84, 3-[5-(1-Benzofuran-5-sulfonyl)-1H,2H,3H,4H,5H,6H-pyrrolo[3,4-c]pyrrole-2-carbonyl]-1,5-dimethyl-1H-pyrazole] |  |  |  | 75 to 250% | 1 to 40 µM | 75 to 250%
O=C(CCC(F)F)N1CC2=C(C1)CN(S(=O)(=O)c1ccc3occc3c1)C2 [Example 1-2, 1-(5-(Benzofuran-5-ylsulfonyl)-3,4,5,6-tetrahydropyrrolo[3,4-c]pyrrol-2(1H)-yl)-4,4-difluorobutan-1-one] |  |  |  | 75 to 250% | 0.1 to 1 µM | 250 to 500%
O=C(OCc1cccnc1)N1CC2=C(C1)CN(S(=O)(=O)c1ccc3occc3c1)C2 [Example 22-7, Pyridin-3-ylmethyl 5-(1-benzofuran-5-sulfonyl)-1H,2H,3H,4H,5H,6H-pyrrolo[3,4-c]pyrrole-2-carboxylate] |  |  |  | 250 to 50000% | 0.1 to 1 µM | 250 to 500%
O=C(NC1CCOC1)N1CC2=C(C1)CN(S(=O)(=O)c1ccc3occc3c1)C2 (stereo not drawn) [Example 3-2, 5-(Benzofuran-5-ylsulfonyl)-N-(tetrahydrofuran-3-yl)-3,4,5,6-tetrahydropyrrolo[3,4-c]pyrrole-2(1H)-carboxamide] |  |  |  | 75 to 250% | 0.1 to 1 µM | 250 to 500%
O=C(NCC1CCOC1)N1CC2=C(C1)CN(S(=O)(=O)c1ccc3occc3c1)C2 (stereo not drawn) [Example 3-5, 5-(Benzofuran-5-ylsulfonyl)-N-((tetrahydrofuran-3-yl)methyl)-3,4,5,6-tetrahydropyrrolo[3,4-c]pyrrole-2(1H)-carboxamide] |  |  |  | 75 to 250% | 1 to 40 µM | 75 to 250%
O=C(NCc1ccco1)N1CC2=C(C1)CN(S(=O)(=O)c1ccc3ncsc3c1)C2 [Example 21-1, 5-(Benzo[d]thiazol-6-ylsulfonyl)-N-(furan-2-ylmethyl)-3,4,5,6-tetrahydropyrrolo[3,4-c]pyrrole-2(1H)-carboxamide] |  |  |  | 250 to 50000% | ≤ 0.1 µM | 250 to 500%
O=C(c1ccc(OCC(F)(F)F)nc1)N1CC2=C(C1)CN(S(=O)(=O)c1ccc3occc3c1)C2 [Example 18-81, 5-[5-(1-Benzofuran-5-sulfonyl)-1H,2H,3H,4H,5H,6H-pyrrolo[3,4-c]pyrrole-2-carbonyl]-2-(2,2,2-trifluoroethoxy)pyridine] |  |  |  | 250 to 50000% | 0.1 to 1 µM | 250 to 500%
COc1ccc(CNC(=O)N2CC3=C(C2)CN(S(=O)(=O)c2cccc(F)c2)C3)cc1 [Example 20-7, 5-(3-Fluorobenzenesulfonyl)-N-[(4-methoxyphenyl)methyl]-1H,2H,3H,4H,5H,6H-pyrrolo[3,4-c]pyrrole-2-carboxamide] | 250 to 50000% | 0.1 to 1 µM | 250 to 500% |  |  | 
O=C(NCC1CCCO1)N1CC2=C(C1)CN(S(=O)(=O)c1ccc3occc3c1)C2 (stereo not drawn) [Example 3-1, 5-(Benzofuran-5-ylsulfonyl)-N-((tetrahydrofuran-2-yl)methyl)-3,4,5,6-tetrahydropyrrolo[3,4-c]pyrrole-2(1H)-carboxamide] |  |  |  | 75 to 250% | 0.1 to 1 µM | 75 to 250%
COc1ccc(CNC(=O)N2CC3=C(C2)CN(S(=O)(=O)c2ccc(OC)c(OC)c2)C3)cc1 [Example 20-31, 5-(3,4-Dimethoxybenzenesulfonyl)-N-[(4-methoxyphenyl)methyl]-1H,2H,3H,4H,5H,6H-pyrrolo[3,4-c]pyrrole-2-carboxamide] | 75 to 250% | 1 to 40 µM | 75 to 250% |  |  | 
Cc1nc(C)c(C(=O)N2CC3=C(C2)CN(S(=O)(=O)c2ccc4occc4c2)C3)s1 [Example 18-85, 5-[5-(1-Benzofuran-5-sulfonyl)-1H,2H,3H,4H,5H,6H-pyrrolo[3,4-c]pyrrole-2-carbonyl]-2,4-dimethyl-1,3-thiazole] |  |  |  | 75 to 250% | 1 to 40 µM | 75 to 250%
O=C(c1cnc(C(F)(F)F)nc1)N1CC2=C(C1)CN(S(=O)(=O)c1ccc3occc3c1)C2 [Example 18-86, 5-[5-(1-Benzofuran-5-sulfonyl)-1H,2H,3H,4H,5H,6H-pyrrolo[3,4-c]pyrrole-2-carbonyl]-2-(trifluoromethyl)pyrimidine] |  |  |  | 75 to 250% | 1 to 40 µM | 75 to 250%
